“And” between values parts separate entries of the source, which are not always exact repeats. Equal values may be shown once. Read-outs that look alike come from different tables or passages of the source.
How the values were obtained:
[1] = system: glutamate-induced neurotoxicity in ESNs; format: cell-based, mouse
ESNs [2] = format: cell-based, mouse
ESNs [3] = conditions: mouse
ESNs [4] = format: cell-based, mouse; remark: listed apart in the source
ESNs [5] = assay: cells; format: cell-based, mouse; conditions: read-out: EC50 of loss of viability (metabolic activity)
ESNs [6] = format: cell-based, mouse; remark: listed apart in the source
VAMP2 = VAMP2 (Mus musculus, UniProt P63044); format: cell-based
ESNs [7] = format: cell-based, mouse; remark: listed apart in the source
[8] = system: Ca^2+ influx through LTX pores; format: cell-based, mouse
ESNs [9] = format: cell-based, mouse; conditions: read-out: EC50 for Ca^2+ uptake
BoNT/A-intoxicated ESNs = format: cell-based, mouse
ESNs [10] = format: cell-based, mouse; remark: listed apart in the source

Sequence of VAMP2 (P63044 2-116 limits assumed): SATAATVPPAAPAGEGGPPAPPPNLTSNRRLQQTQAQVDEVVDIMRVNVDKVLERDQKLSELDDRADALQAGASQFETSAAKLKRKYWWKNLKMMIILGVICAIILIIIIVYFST

Molecule: N[C@H](CCCP(=O)(O)O)C(=O)O [APV, R-2-amino-5-phosphonopentanoate]
- effect on NMDA-induced neurotoxicity [1]: blocked in a dose-dependent manner
- effect on glutamate-induced cell death [1]: prevented glutamate-induced cell death in a dose-dependent manner

Molecule: NCCCC(=O)O [GABA, γ-aminobutyric acid]
- acute Ca^2+ uptake (ESNs [2]): no effect

Molecule: N[C@@H](CCC(=O)O)C(=O)[O-].[Na+] [glutamate, Mono-sodium glutamate]
- concentration at which primary necrosis was first observed (ESNs [3]): 3000 µM
- Normalize log2 (FC) Casp4 (ESNs [4]): 2.96
- Normalize log2 (FC) Casp6 (ESNs [4]): 2.15
- Normalize log2 (FC) Casp12 (ESNs [4]): 3.03
- Normalize log2 (FC) Cdk1 (ESNs [4]): 3.11
- Normalize log2 (FC) CflaR (ESNs [4]): 2.54
- Normalize log2 (FC) Dap1 (ESNs [4]): 2.84
- Normalize log2 (FC) Dapk2 (ESNs [4]): 4.18
- Normalize log2 (FC) Dram1 (ESNs [4]): 2.63
- Normalize log2 (FC) Fadd1 (ESNs [4]): 1.98
- Normalize log2 (FC) Grin1 (ESNs [4]): 0.39
- Normalize log2 (FC) Pawr (ESNs [4]): 3.49
- Normalize log2 (FC) Snap25 (ESNs [4]): −0.52
- Normalize log2 (FC) Traf1 (ESNs [4]): 5.02
- EC50 (ESNs [5]; Mus musculus, 24 h): 410 nM
- duration of evoked series of action potentials (ESNs [6]): 5 to 10 s

Molecule: Tetanospasmin neurotoxin [tetanus]
- VAMP2 signal by immunoblot (VAMP2): nearly complete loss of VAMP2 signal

Molecule: CN[C@H](CC(=O)O)C(=O)O [NMDA, N-methyl-D-aspartate]
- EC50 (ESNs [5]): 390 nM

Molecule: N#Cc1cc2c(cc1[N+](=O)[O-])=NC(=O)C(=O)N=2 [CNQX, 6-cyano-7-nitroquinoxaline-2,3-dione]
- effect on glutamate-induced cell death [1]: not protective

Molecule: NCc1cc(=O)[nH]o1 [muscimol]
- GABA-A receptor current (ESNs [6]): evokes a strong outward Cl− current

Molecule: α-Latrotoxin [LTX]
- decrease of total protein yield compared to controls (ESNs [7]): 44±16% and 52±19%
- decrease of total protein yield relative to untreated cultures (ESNs [7]): approximately 50%
- Ca^2+ influx, normalized to LTX (%) [8]: 100.0%
- EC50 (ESNs [9]): 0.175 nM
- rescue of full-length SNAP-25 (BoNT/A-intoxicated ESNs): 92±4.6% and 98±1.7%
- delay between addition and onset of Fluo-4 fluorescence (ESNs [10]): 1.5 min

Molecule: gadolinium chloride [Gd^3+]
- effect on glutamate-induced cell death [1]: no effect on viability
- elimination of acute glutamate-evoked Ca^2+ signal (ESNs [2]): over 95%

Reference: US20150153325A1 (priority 2012, published 2015)
